Assay results from PubChem BioAssay (NCI).
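Test compounds were applied to cells in 96-well plates for 48 hours at 5 doses. GI50: concentration for 50% inhibition of growth. At the TGI there is no net growth.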

Experiments:
Experiment in all cases: DTP human tumour cell line panel, 48 h
EKVX NSCLC = test system: EKVX NSCLC
MDA-MB-231 breast = test system: MDA-MB-231 breast
UACC-62 melanoma = test system: UACC-62 melanoma
KM12 colon = test system: KM12 colon
OVCAR-3 ovarian = test system: OVCAR-3 ovarian
T-47D breast = test system: T-47D breast
OVCAR-4 ovarian = test system: OVCAR-4 ovarian
CCRF-CEM leukemia = test system: CCRF-CEM leukemia
IGROV1 ovarian = test system: IGROV1 ovarian
MDA-MB-435 = test system: MDA-MB-435

Row | Compound | GI50 (EKVX NSCLC) | TGI (EKVX NSCLC) | GI50 (MDA-MB-231 breast) | TGI (MDA-MB-231 breast) | GI50 (UACC-62 melanoma) | TGI (UACC-62 melanoma) | GI50 (KM12 colon) | TGI (KM12 colon) | GI50 (OVCAR-3 ovarian) | TGI (OVCAR-3 ovarian) | GI50 (T-47D breast) | TGI (T-47D breast) | GI50 (OVCAR-4 ovarian) | TGI (OVCAR-4 ovarian) | TGI (CCRF-CEM leukemia) | TGI (IGROV1 ovarian) | GI50 (CCRF-CEM leukemia) | GI50 (MDA-MB-435) | TGI (MDA-MB-435) | GI50 (IGROV1 ovarian)
1 | COc1cc(NCCC2CCCCN2)c2ncccc2c1OC (stereo not drawn) | 15.6 µM | 48.6 µM | 3.02 µM | 12.5 µM | 2.24 µM | 6.19 µM | 14.9 µM | 33.5 µM | 2.13 µM | 5.01 µM | 2.91 µM | 14.4 µM | 1.5 µM | 2.86 µM |  |  |  |  |  | 
2 | O=C(OCc1ccccc1)n1cccc1 |  | > 100 µM |  |  |  | > 100 µM |  | > 100 µM |  | > 100 µM |  |  |  | > 100 µM | > 100 µM | > 100 µM |  |  |  | 
3 | Cn1cc(-c2nc(-c3cn(C)c4ncccc34)cs2)c2ccccc21 | 1.77 µM | > 100 µM | 3.16 µM | 21.8 µM | 1.35 µM | > 100 µM | 0.61 µM | > 100 µM | 0.414 µM | 1.71 µM | 2.98 µM | 17 µM |  |  | > 100 µM | 38.7 µM | 2.98 µM | 0.292 µM | 1.15 µM | 1.39 µM
4 | C=C1C(C(=O)O)C1C(=O)O (stereo not drawn) |  | > 100 µM |  |  |  | > 100 µM |  | > 100 µM |  |  |  |  |  | > 100 µM | > 100 µM | > 100 µM |  |  |  | 
5 | CC(C)(C)OC1=C(OC(C)(C)C)C(O)(c2ccc(Cl)cc2)C1=O (stereo not drawn) |  | > 100 µM |  |  |  | > 100 µM |  | > 100 µM |  | > 100 µM |  |  |  | > 100 µM | > 100 µM | > 100 µM |  |  |  | 
6 | CC[P+]1(c2ccccc2)CCCCC1 |  | > 100 µM |  |  |  | > 100 µM |  | > 100 µM |  | > 100 µM |  |  |  | > 100 µM | > 100 µM | > 100 µM |  |  |  | 
7 | Oc1cc(O)c2c(c1)OC(c1ccc(O)c(O)c1)C(O)C2c1c(O)cc(O)c2c1OC(c1ccc(O)c(O)c1)C(O)C2 (stereo not drawn) |  | > 100 µM |  | > 100 µM |  | > 100 µM |  | > 100 µM |  | > 100 µM |  | > 100 µM |  | > 100 µM |  | > 100 µM |  |  | > 100 µM | 
8 | O=C1C2C3C=C4c5ccccc5N(c5ccccc5)C4([C@@H]2C(=O)N1c1ccc(F)cc1)[C@H]1C(=O)N(c2ccc(F)cc2)C(=O)[C@@H]31 (stereo partly drawn) |  | > 100 µM |  |  |  |  |  | > 100 µM |  | > 100 µM |  |  |  |  | > 100 µM |  |  |  |  | 
9 | CCN(CC)CCCC(C)Nc1ccnc(/C=C/c2ccc(Cl)cc2)c1 (stereo not drawn) |  | 15.6 µM |  | 3.19 µM |  | 3.69 µM |  | 7.39 µM |  | 4.98 µM |  | 3.59 µM |  |  | > 19.7 µM | 9.47 µM |  |  | 2.95 µM | 
10 | N#CC(C#N)=C1CCC2C(=C(C#N)C#N)CCC12 (stereo not drawn) |  | > 100 µM |  |  |  | > 100 µM |  | > 100 µM |  | > 100 µM |  |  |  | > 100 µM | > 100 µM | > 100 µM |  |  |  | 
11 | CC(=N/NC(N)=S)/C(C)=N/NC(N)=S |  | > 100 µM |  | > 100 µM |  | > 100 µM |  | > 100 µM |  | > 100 µM |  |  |  |  | > 100 µM | > 100 µM |  |  | > 100 µM | 
12 | CSc1cc(C(C)(C)C)ccc1C(O)c1ccc(C(C)(C)C)cc1SC |  | 21.2 µM |  |  |  | 33.9 µM |  | 25.8 µM |  | 24.9 µM |  |  |  | 22.9 µM | 35.8 µM | 26.2 µM |  |  |  | 
13 | C=CCC1C(=O)CC2(C)C(CC=C)C(=O)CC12C (stereo not drawn) |  | > 100 µM |  |  |  | > 100 µM |  | > 100 µM |  | > 100 µM |  |  |  | > 100 µM | > 100 µM | > 100 µM |  |  |  | 
14 | N#CC1=C(c2ccccc2)OC2(N)OC(c3ccccc3)=C(C#N)C12C#N (stereo not drawn) |  | > 100 µM |  |  |  | > 100 µM |  | > 100 µM |  | > 100 µM |  |  |  | > 100 µM | > 100 µM | > 100 µM |  |  |  | 
15 | CC1OC(CC2C=CCc3c(O)c4c(c(O)c32)C(=O)c2ccccc2C4=O)CC(NC(=O)C(F)(F)F)C1O (stereo not drawn) |  | 25.7 µM |  |  |  | 17.4 µM |  | 61.4 µM |  | 19.2 µM |  |  |  | 11.7 µM | 20.7 µM | 44.6 µM |  |  |  | 
16 | CCOC(=O)c1cc2c(n1Cc1cc(OC)cc(OC)c1)-c1oncc1CC2 | 0.32 µM | > 100 µM | 1.09 µM | > 95.8 µM | 0.403 µM | > 100 µM | 0.0816 µM | > 59.5 µM | 0.0389 µM | 0.197 µM | 31.1 µM | > 100 µM | 1.06 µM | > 100 µM | > 100 µM | > 100 µM | 0.215 µM |  |  | 0.226 µM
17 | CC[Si](CC)(CC)OC1[C@@H](O[Si](CC)(CC)CC)[C@@H](CNC(=O)NC)O[C@H]1n1cnc2c(NC(=O)Nc3ccccc3)ncnc21 (stereo partly drawn) |  |  | 4.18 µM | 56.1 µM | 2.88 µM | 25.7 µM | 3.26 µM | 9.5 µM | 2.63 µM | 7.7 µM | 4.47 µM | > 100 µM | 3.41 µM | > 100 µM | 9.18 µM | > 100 µM | 3.02 µM | 3.17 µM | > 100 µM | 5.02 µM
18 | Cc1ccc(NC(=O)CCC(=O)C2Cc3ccccc3C2=O)cc1C (stereo not drawn) |  | > 100 µM |  |  |  | > 100 µM |  | > 100 µM |  | > 100 µM |  |  |  | > 100 µM | > 100 µM | > 100 µM |  |  |  | 
19 | O=C(c1ccc(Nc2nccc(NCCCCNc3ccnc4cc(Cl)ccc34)n2)cc1)N1CCCCC1 | 3.86 µM | 19.8 µM | 1.86 µM | 4.97 µM |  |  | 2.94 µM | 11 µM | 1.92 µM | 4.63 µM | 2.08 µM | 5.6 µM | 1.95 µM | 7.52 µM | > 100 µM | 9.08 µM | 1.48 µM | 1.7 µM | 3.89 µM | 2.83 µM
20 | O=C(Nc1ccc(Cl)cc1)N1CCN(c2ccc3nncn3n2)CC1 |  |  | 63.2 µM | > 100 µM | 21.7 µM | > 100 µM | 52.9 µM | > 100 µM | 62.4 µM | > 100 µM | 29.4 µM | > 100 µM | 51.6 µM | > 100 µM |  | > 100 µM |  | 64.3 µM | > 100 µM | > 100 µM
21 | CN(C)CCNC(=O)c1cccc2c1nc(-c1ccncc1)c1ccccc12 |  | 10 µM |  |  |  | 6.44 µM |  | 25.6 µM |  | 30.4 µM |  |  |  | 15.6 µM | > 100 µM | 20.1 µM |  |  |  | 
